Measurements as given in PMC3356383, “Efficacious Intermittent Dosing of a Novel JAK2 Inhibitor in Mouse Models of Polycythemia Vera” (PLoS ONE, 2012).
Marks after values point to notes of the source that are not given here.

What was measured:
TYK2 (JH1) = molecular target: T1, TYK2 (JH1) (Homo sapiens, UniProt P29597); assay: TYK2 enzyme assay, HTRF detection; type: biochemical
T1 construct: TYK2 (JH1)
Description: JAK1, JAK2, JAK3, and TYK2 kinase activity assays were performed as described previously using HTRF detection technology and the peptide substrate amino hexanoyl biotin-EQEDEPEGDYFEWLE-NH2. Each reaction was incubated between 60 and 80 min at room temperature. Final conditions were as follows: JAK1, 400 pM enzyme, Hepes pH 7.5, 10 mM MgCl2, 0.01% Brij-35, 1 mM EGTA, 0.1 mg/ml BSA), 2 mM DTT, 2 µM peptide substrate, 25 µM MgATP, 5% DMSO and the desired concentration of subject compound; JAK2, 25 pM enzyme (JH1, JH1–JH2^wt, JH1–JH2^V617F domains), 2 µM peptide substrate, 15 µM MgATP, 5 mM MgCl2, 100 mM NaCl, 2 mM DTT, 0.1 mg/ml BSA, 50 mM Tris (pH 7.4), 5% DMSO and the desired concentration of subject compound; JAK3, 250 pM enzyme, 50 mM Hepes pH 7.5, 10 mM MgCl2, 0.01% Brij-35, 1 mM EGTA, 0.1 mg/ml BSA), 2 mM DTT, 2.0 µM peptide substrate, 25 µM MgATP, 5% DMSO, and the desired concentration of subject compound; TYK2, 125 pM enzyme, 50 mM Hepes pH 7.5, 10 mM MgCl2, 0.01% Brij-35, 1 mM EGTA, 0.1 mg/ml BSA, 2 mM DTT, 2.0 µM peptide substrate, 15 µM MgATP, 5% DMSO and the desired concentration of subject compound.

[1] = system: peripheral blood cell populations; assay: Cell populations in peripheral blood of normal mice; type: in vivo, C57BL/6 mice; details: 54 mpk
From the text: (§1) JAK2 and its family members JAK1 and JAK3 are known to signal downstream of cytokines that play essential roles in the development of lymphoid cell populations. To examine more thoroughly the effects of JAK2 inhibition on lymphoid cells, we analyzed wild-type (C57BL/6) mice treated with 54 mpk MRLB-11055 for 3 days, 6 days or up to 5 cycles of 3 days (“on”) followed by a 4 day holiday (“off”).
Supplementary file pone.0037207.s005.doc: Table S3 Effect of MRLB-11055 on Cell Populations in Peripheral Blood of Normal Mice. Cell counts measured by Advia. Cycles refer to 3 days of treatment followed by a 4 day holiday. *p<0.01 and **p<0.001 in Student T test when comparing vehicle with treatment. HCT, hematocrit; RBC, red blood cells; HGB, hemoglobin; WBC, white blood cells. (DOC) Click here for additional data file.

thymus cell populations = assay: Cell populations in thymus of normal mice; type: in vivo; details: 54 mpk
Description: Cells were stained in PBS, 0.5% BSA with antibodies for 15 min on ice. Stained cells were acquired on a 4-laser LSR-II (BD Biosciences) and data analyzed using FlowJo software (Treestar). Dead cells were labeled with the blue fluorescent LIVE/DEAD reactive dye (Invitrogen) and excluded from the analysis.
Monoclonal antibodies (anti-mouse): CD3, CD4, CD5, CD8, CD11b, CD19, CD21/35, CD23, CD25, CD43, CD44, CD49b, CD69, CD71, CD93, CD117, B220, GR-1, IgD, NK1.1, NKG2A/C/E, NKG2D, Ter119 were purchased from BD Biosciences; CD4, CD8, CD49b, CD62L, TCRβ, TCRγδ from eBioscience; GR-1 from Invitrogen; CD43 from Miltenyi Biotec. Goat anti-mouse IgM-FITC, (μ chain specific) from Jackson Immuno Research.
as §1
Supplementary file pone.0037207.s007.doc: Table S5 Effect of MRLB-11055 on Cell Populations in Thymus of Normal Mice. Cell counts measured by Advia. Cycles refer to 3 days of treatment followed by a 4 day holiday. *p<0.05 in Student T test when comparing vehicle 5 cycle with treatment 5 cycle and vehicle 2 cycle with treatment 2 cycle, resp. (DOC) Click here for additional data file.

[2] = 2 cycles (3 days treatment, 4 day holiday)
[3] = 5 cycles (3 days treatment, 4 day holiday)

T1 sequence (P29597 897-1176 limits assumed, species assumed): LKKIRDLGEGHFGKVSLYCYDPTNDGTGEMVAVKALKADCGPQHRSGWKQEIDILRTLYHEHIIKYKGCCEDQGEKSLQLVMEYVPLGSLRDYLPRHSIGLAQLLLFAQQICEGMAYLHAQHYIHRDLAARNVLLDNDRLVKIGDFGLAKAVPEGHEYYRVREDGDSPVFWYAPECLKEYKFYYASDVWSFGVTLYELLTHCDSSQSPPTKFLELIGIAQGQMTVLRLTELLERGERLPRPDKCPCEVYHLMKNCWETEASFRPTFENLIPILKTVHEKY

NC(=O)c1cnc(N[C@H](C2CC2)C(F)(F)F)c2c1[nH]c1cc(-c3cnc(N)nc3)ccc12 [MRLB-11055]
IC50 (TYK2 (JH1); HTRF, mean, n = 3, read-out: IC50, cell-free TYK2 (JH1)): 180 pM
Selectivity for JAK2 over Tyk2 (TYK2 (JH1); cell-free assays): 2 fold
Baso-phils [1, 2]: 0.03 ± 0.01 * x 10^3/µl
Eosino-phils [1, 2]: 0.14 ± 0.06 x 10^3/µl
HCT [1, 2]: 51.6 ± 1.5* %
HGB [1, 2]: 13.4 ± 0.4** g/dL
Lympho-cytes [1, 2]: 6.2 ± 1.6 x 10^3/µl
Mono-cytes [1, 2]: 0.04 ± 0.01 x 10^3/µl
Neutro-phils [1, 2]: 0.78 ± 0.18 x 10^3/µl
Platelets [1, 2]: 2244 ± 85** x 10^3/µl
Platelets MPV [1, 2]: 6.9 ± 0.2** fL
RBC [1, 2]: 9.65 ± 0.27* x 10^6/µl
Retic [1, 2]: 803 ± 18** x 10^9/L
WBC [1, 2]: 7.4 ± 1.7 x 10^3/µl
Baso-phils [1, 3]: 0.04 ± 0.01 x 10^3/µl
Eosino-phils [1, 3]: 0.06 ± 0.03 * x 10^3/µl
HCT [1, 3]: 50.3 ± 0.6** %
HGB [1, 3]: 13.0 ± 0.1** g/dL
Lympho-cytes [1, 3]: 4.7 ± 1.5** x 10^3/µl
Mono-cytes [1, 3]: 0.05 ± 0.01 x 10^3/µl
Neutro-phils [1, 3]: 0.86 ± 0.34 x 10^3/µl
Platelets [1, 3]: 2376 ± 171 ** x 10^3/µl
Platelets MPV [1, 3]: 6.8 ± 0.1** fL
RBC [1, 3]: 9.41 ± 0.13** x 10^6/µl
Retic [1, 3]: 911 ± 64** x 10^9/L
WBC [1, 3]: 5.9 ± 1.9* x 10^3/µl
Baso-phils ([1]; 3 days): 0.03 ± 0.03 x 10^3/µl
Eosino-phils ([1]; 3 days): 0.26 ± 0.09 x 10^3/µl
HCT ([1]; 3 days): 50.4 ± 0.8** %
HGB ([1]; 3 days): 13.7 ± 0.2** g/dL
Lympho-cytes ([1]; 3 days): 4.2 ± 0.9** x 10^3/µl
Mono-cytes ([1]; 3 days): 0.05 ± 0.02 x 10^3/µl
Neutro-phils ([1]; 3 days): 0.61 ± 0.07 x 10^3/µl
Platelets ([1]; 3 days): 1611 ± 85** x 10^3/µl
Platelets MPV ([1]; 3 days): 6.6 ± 0.4 fL
RBC ([1]; 3 days): 9.29 ± 0.04** x 10^6/µl
Retic ([1]; 3 days): 43 ± 6** x 10^9/L
WBC ([1]; 3 days): 5.3 ± 1.0** x 10^3/µl
Baso-phils ([1]; 6 days): 0.02 ± 0.01** x 10^3/µl
Eosino-phils ([1]; 6 days): 0.19 ± 0.06 x 10^3/µl
HCT ([1]; 6 days): 48.7 ± 2.5** %
HGB ([1]; 6 days): 12.9 ± 0.5** g/dL
Lympho-cytes ([1]; 6 days): 3.5 ± 0.4** x 10^3/µl
Mono-cytes ([1]; 6 days): 0.05 ± 0.02 x 10^3/µl
Neutro-phils ([1]; 6 days): 0.60 ± 0.16 x 10^3/µl
Platelets ([1]; 6 days): 2534 ± 88** x 10^3/µl
Platelets MPV ([1]; 6 days): 6.1 ± 0.2** fL
RBC ([1]; 6 days): 8.80 ± 0.39** x 10^6/µl
Retic ([1]; 6 days): 162 ± 24** x 10^9/L
WBC ([1]; 6 days): 4.6 ± 0.6** x 10^3/µl
Thymus CD4+CD8+ (thymus cell populations; [2]): 91.3 ± 0.3%
Thymus CD4-CD8- (thymus cell populations; [2]): 3.0 ± 0.8%
Thymus Cell Count (thymus cell populations; [2]): 75.4 ± 26.5 x 10^6
Thymus Single Positive CD4+ (thymus cell populations; [2]): 3.9 ± 0.8* %
Thymus Single Positive CD8+ (thymus cell populations; [2]): 0.55 ± 0.03* %
Thymus CD4+CD8+ (thymus cell populations; [3]): 90.7 ± 1.5%
Thymus CD4-CD8- (thymus cell populations; [3]): 2.1 ± 0.6%
Thymus Cell Count (thymus cell populations; [3]): 130.3 ± 27.1 x 10^6
Thymus Single Positive CD4+ (thymus cell populations; [3]): 5.0 ± 1.1%
Thymus Single Positive CD8+ (thymus cell populations; [3]): 1.4 ± 0.2* %
Thymus CD4+CD8+ (thymus cell populations; 3 days): 85.6 ± 2.4* %
Thymus CD4-CD8- (thymus cell populations; 3 days): 3.5 ± 0.6%
Thymus Cell Count (thymus cell populations; 3 days): 37.3 ± 13.4* x 10^6
Thymus Single Positive CD4+ (thymus cell populations; 3 days): 7.1 ± 1.3%
Thymus Single Positive CD8+ (thymus cell populations; 3 days): 2.7 ± 0.8%
Thymus CD4+CD8+ (thymus cell populations; 6 days): 87.9 ± 5.0%
Thymus CD4-CD8- (thymus cell populations; 6 days): 2.4 ± 0.9%
Thymus Cell Count (thymus cell populations; 6 days): 37.3 ± 12.1* x 10^6
Thymus Single Positive CD4+ (thymus cell populations; 6 days): 5.8 ± 2.7%
Thymus Single Positive CD8+ (thymus cell populations; 6 days): 2.7 ± 1.1%
